The target in assay [1] is T1, human mGluR5 (Homo sapiens, UniProt P41594).
T1 construct: expressed in transfected cells
Description: Experiment for receptor function of mGluR5 (Ca2+-dependent fluorescence, FLIPR, CHO-K1 cells stably expressing human mGluR5). The note with it: L-glutamic acid 10 μM, Fluo-4 fluorescence. The format is cell-based. Summed up: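 Fluo-4-loaded CHO-K1 cells pre-incubated 2 min with test substance, then stimulated with L-glutamic acid (final 10 μM) in HBSS, pH 7.4. FLIPR Ca2+ fluorescence normalized to glutamate alone (100%) and glutamate with 10 μM MPEP (0%); IC50 estimated by logistic fit.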

Assay [2] has as its system male Slc:ICR mice. Description: Action against formalin-induced pain behavior in mice. In kind it is in vivo. The note with it: Mus musculus, iv, 0.1 h, 6 minutes observation, read-out: Percent inhibition of pain-related behavior time (%); for inhibition in vivo at 1 mg/kg: test substance 1 mg/kg intravenously; for inhibition in vivo at 3 mg/kg: test substance 3 mg/kg intravenously. The method, then:
4 to 6-week-old male Slc:ICR mice (available from Japan SLC, Inc.) were used. A medium or a test substance (1 mg/kg or 3 mg/kg) was intravenously administered to each mouse, and immediately thereafter, 20 μL of 1% or 5% formalin was subcutaneously administered to a right hind paw of the mouse. Thereafter, the mice were quickly put into an observation cage and measured for the total time (sec) of pain-related behavior (licking or biting behavior against the right hindlimb) during 6 minutes, and an average value of the pain-related behavior time of each group was calculated.
The intensity of an analgesic action of the test substance was evaluated in terms of percent inhibition (%) of pain-related behavior time which is calculated as {(A−B)/A×100}, wherein A is an average value of the pain-related behavior time of a medium-administered group, and B is an average value of the pain-related behavior time of a test substance-administered group.

Assay [3] has as its system male Slc:ICR mice. Description: Action against pain-related behavior and micturition cycle in mice with cyclophosphamide (CP)-induced acute cystitis. In kind it is in vivo. The conditions noted are these: Mus musculus, iv, 0.25 h, CP 300 mg/kg i.p., 15 minutes observation; for inhibition in vivo at 3 mg/kg: test substance 3 mg/kg intravenously 3 hours after CP; for inhibition in vivo at 1 mg/kg: test substance 1 mg/kg intravenously 3 hours after CP. Here is the method:
An action of a test substance against visceral pain and frequent urination associated with cystitis, which was induced by intraperitoneal administration (20 mL/kg) of CP (300 mg/kg) to 4 to 5-week-old male Slc:ICR mice (available from Japan SLC, Inc.), was investigated. This experiment was performed according to a method described in European Journal of Pharmacology, 676 (2012), pp. 75-80.
Three hours after the administration of CP, a test substance (1 mg/kg or 3 mg/kg) was intravenously administered, and observation by visual inspection and video recording were performed for 15 minutes immediately thereafter. In the observation by visual inspection, four pain-related behaviors (eye opening, rounded back, leg dragging, and behavior during urination) were scored, each rated on a scale of 0-10, according to the following criteria.
Eye opening (normal: 0 point, sometimes closed or half-open eyes: 5 points, completely closed: 10 points)
Rounded back (normal: 0 point, sometimes crouched: 5 points, crouched at almost all times: 10 points)
Leg dragging (normal: 0 point, leg dragging: 10 points)
Behavior during urination (normal: 0 point, shaking hip in micturition: 10 points)
In addition, the video was played back, and the frequency of licking behavior around the abdomen as a pain-related behavior was scored, rated on a scale of 0-10, according to the following criteria.
Licking behavior around the abdomen (0 to 3 times: 0 point, 4 times to 10 times: 5 points, 11 times or more: 10 points)
Furthermore, the video was played back, and the frequency of urination (urination marks) on a filter paper was counted and taken as an index for micturition cycle.
An average value of the pain-related behavior score of each group (total score of the five items: 50 points at maximum) and an average value of the frequency of urination (urination marks) on the filter paper were determined.
The strength of an analgesic action of the test substance against the CP-induced visceral pain was evaluated in terms of percent inhibition (%) of pain-related behavior score which is calculated as {(A−B)/A×100}, wherein A is an average value of the pain-related behavior score of a medium-administered group, and B is an average value of the pain-related behavior score of a test substance-administered group.
In addition, the strength of a frequent urination inhibitory action of the test substance against the CP-induced frequent urination was evaluated in terms of percent inhibition (%) of the frequency of urination which is calculated as {(C−D)/C×100}, wherein C is an average value of the frequency of urination of a medium-administered group, and D is an average value of the frequency of urination of a test substance-administered group.

Setting [4] is: read-out: Percent inhibition of pain-related behavior score (%).
Setting [5] is: read-out: Percent inhibition of the frequency of urination (%).

What is called IC50 is the concentration that gives 50% inhibition. Lower therefore signals higher potency.

SMILES strings stand for the structures. Counter-ions that a name gives are not always drawn.

T1 sequence (P41594 21-1212): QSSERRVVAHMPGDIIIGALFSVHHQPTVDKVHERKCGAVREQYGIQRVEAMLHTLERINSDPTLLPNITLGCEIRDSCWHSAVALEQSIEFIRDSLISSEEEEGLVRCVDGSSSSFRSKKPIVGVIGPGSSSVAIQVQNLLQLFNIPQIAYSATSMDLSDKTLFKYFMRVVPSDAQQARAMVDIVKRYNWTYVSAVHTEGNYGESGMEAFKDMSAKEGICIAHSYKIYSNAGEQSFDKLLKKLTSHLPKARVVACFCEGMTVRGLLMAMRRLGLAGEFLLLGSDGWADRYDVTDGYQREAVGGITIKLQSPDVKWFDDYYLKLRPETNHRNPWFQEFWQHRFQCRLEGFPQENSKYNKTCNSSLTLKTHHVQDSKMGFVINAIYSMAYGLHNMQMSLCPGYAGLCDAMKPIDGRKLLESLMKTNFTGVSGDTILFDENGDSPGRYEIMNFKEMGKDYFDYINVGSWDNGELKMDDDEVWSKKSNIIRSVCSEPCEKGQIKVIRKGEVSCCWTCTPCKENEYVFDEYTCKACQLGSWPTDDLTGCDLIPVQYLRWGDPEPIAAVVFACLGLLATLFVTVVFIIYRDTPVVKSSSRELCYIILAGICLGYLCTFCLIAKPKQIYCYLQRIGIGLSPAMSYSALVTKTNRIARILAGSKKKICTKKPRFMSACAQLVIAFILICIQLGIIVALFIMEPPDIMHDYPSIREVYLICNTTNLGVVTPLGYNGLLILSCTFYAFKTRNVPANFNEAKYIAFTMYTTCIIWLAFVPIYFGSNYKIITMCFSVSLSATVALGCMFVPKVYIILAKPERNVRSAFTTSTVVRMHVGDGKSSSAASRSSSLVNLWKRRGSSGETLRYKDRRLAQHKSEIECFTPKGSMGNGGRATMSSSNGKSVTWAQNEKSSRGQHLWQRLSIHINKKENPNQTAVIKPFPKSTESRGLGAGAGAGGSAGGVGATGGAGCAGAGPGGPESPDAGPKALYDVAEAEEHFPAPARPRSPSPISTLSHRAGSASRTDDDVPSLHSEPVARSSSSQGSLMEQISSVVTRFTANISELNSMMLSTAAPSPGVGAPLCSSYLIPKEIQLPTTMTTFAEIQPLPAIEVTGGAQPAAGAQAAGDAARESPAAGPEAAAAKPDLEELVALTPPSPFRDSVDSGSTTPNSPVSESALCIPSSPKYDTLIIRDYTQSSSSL

Molecule `Fc1cccnc1COc1cc(-c2cccnn2)c2c(n1)CCC2` [Example 272, 2-[(3-Fluoropyridin-2-yl)methoxy]-4-(pyridazin-3-yl)-6,7-dihydro-5H-cyclopenta[b]pyridine] showed an IC50 in assay [1] of 117 nM. In addition, in assay [2] (5% formalin), the inhibition in vivo at 1 mg/kg was 40.5%.

For `c1ccc(COc2cc(-c3cncnc3)c3c(n2)CCCCC3)nc1` [Example 233, 2-(Pyridin-2-ylmethoxy)-4-(pyrimidin-5-yl)-6,7,8,9-tetrahydro-5H-cyclohepta[b]pyridine hydrochloride], half-maximal inhibition in assay [1] (IC50) required 10.9 nM. The inhibition in vivo at 1 mg/kg in assay [2] (1% formalin) came to 59.5%.

With `c1ccc(COc2cc(-c3cccnc3)c3c(n2)CCCC3)nc1` [Example 82, 4-(Pyridin-3-yl)-2-(pyridin-2-ylmethoxy)-5,6,7,8-tetrahydroquinoline], the IC50 in assay [1] is 153 nM. In assay [2] (1% formalin), the inhibition in vivo at 3 mg/kg turned out to be 59.8%.

`Fc1cccc(COc2cc(-c3cncnc3)c3c(n2)CCC3)c1` [Example 15, 2-[(3-Fluorobenzyl)oxy]-4-(pyrimidin-5-yl)-6,7-dihydro-5H-cyclopenta[b]pyridine]: the inhibition in vivo at 1 mg/kg in assay [2] (5% formalin) worked out at 64%.

In turn, `c1ncc(-c2cc(OCc3ncco3)nc3c2CCCC3)cn1` [Example 165, 2-(1,3-Oxazol-2-ylmethoxy)-4-(pyrimidin-5-yl)-5,6,7,8-tetrahydroquinoline] yielded an IC50 in assay [1] of 37.9 nM. In addition, in assay [2] (1% formalin), the inhibition in vivo at 1 mg/kg amounted to 52.3%.

Consider `CC1CCc2c(-c3cncnc3)cc(OCc3ccccn3)nc21` (stereo not shown) [Example 238, 7-Methyl-2-(pyridin-2-ylmethoxy)-4-(pyrimidin-5-yl)-6,7-dihydro-5H-cyclopenta[b]pyridine], for which the IC50 in assay [1] was 23 nM. The inhibition in vivo at 1 mg/kg in assay [2] (5% formalin) was 77.9%.

Take `OCc1cncc(-c2cc(OCc3ccccn3)nc3c2CCC3)n1` [Example 268, {6-[2-(Pyridin-2-ylmethoxy)-6,7-dihydro-5H-cyclopenta[b]pyridin-4-yl]pyrazin-2-yl}methanol hydrochloride]: the inhibition in vivo at 1 mg/kg in assay [2] (5% formalin) came to 53.9%.

In assay [1], `N#Cc1cccc(COc2cc(-c3cncnc3)c3c(n2)CCC3)c1` [Example 23, 3-({[4-(Pyrimidin-5-yl)-6,7-dihydro-5H-cyclopenta[b]pyridin-2-yl]oxy}methyl)benzonitrile] registered an IC50 of 39 nM. In addition, the inhibition in vivo at 1 mg/kg in assay [2] (5% formalin) was found to be 47.9%.

In the case of `c1ccc(COc2cc(-c3cncnc3)c3c(n2)CCC3)nc1` [Example 12, 2-(Pyridin-2-ylmethoxy)-4-(pyrimidin-5-yl)-6,7-dihydro-5H-cyclopenta[b]pyridine hydrochloride], in assay [2] (1% formalin), the inhibition in vivo at 1 mg/kg came out at 66.8%.

In assay [1], `Fc1ccc(COc2cc(-c3cncnc3)c3c(n2)CCC3)cc1` [Example 257, 2-[(4-Fluorobenzyl)oxy]-4-(pyrimidin-5-yl)-6,7-dihydro-5H-cyclopenta[b]pyridine] came in with an IC50 of 63.5 nM. In addition, the inhibition in vivo at 1 mg/kg in assay [2] (5% formalin) came to 51.1%.

`N#Cc1ccc(-c2cc(OCc3ncc(F)cc3F)nc3c2CCC3)cn1` [Example 246, 5-{2-[(3,5-Difluoropyridin-2-yl)methoxy]-6,7-dihydro-5H-cyclopenta[b]pyridin-4-yl}pyridine-2-carbonitrile] showed an IC50 in assay [1] of 42 nM. Further, in assay [2] (5% formalin), the inhibition in vivo at 1 mg/kg is 22.8%.

In assay [1], `[O-][n+]1cncc(-c2cc(OCc3ccccn3)nc3c2CCCC3)c1` [Example 231, 4-(1-Oxidopyrimidin-5-yl)-2-(pyridin-2-ylmethoxy)-5,6,7,8-tetrahydroquinoline] gave an IC50 of 304 nM. Besides, in assay [2] (5% formalin), the inhibition in vivo at 1 mg/kg stood at 66.1%.

Consider `Nc1ncc(-c2cc(OCc3ncccc3F)nc3c2CCCC3)cn1` [Example 191, 5-{2-[(3-Fluoropyridin-2-yl)methoxy]-5,6,7,8-tetrahydroquinolin-4-yl}pyrimidin-2-amine hydrochloride], for which inhibition in assay [1] was half-maximal at 36 nM (IC50). Moreover, the inhibition in vivo at 3 mg/kg in assay [3] (setting [4]) came out at 20.5%; in assay [3] (setting [5]) it was 36.5%.

In assay [1], `Cc1ncc(-c2cc(OCc3ccc(F)cc3)nc3c2CCC3)cn1` [Example 260, 2-[(4-Fluorobenzyl)oxy]-4-(2-methylpyrimidin-5-yl)-6,7-dihydro-5H-cyclopenta[b]pyridine] yielded an IC50 of 79 nM. Also, the inhibition in vivo at 1 mg/kg in assay [2] (5% formalin) worked out at 42.9%.

In the case of `c1ncc(-c2cc(OCc3nccs3)nc3c2CCCC3)cn1` [Example 164, 4-(Pyrimidin-5-yl)-2-(1,3-thiazol-2-ylmethoxy)-5,6,7,8-tetrahydroquinoline], it took 27.9 nM to reach half-maximal inhibition in assay [1] (IC50). Further, in assay [2] (1% formalin), the inhibition in vivo at 1 mg/kg worked out at 42.2%.

As for `c1cnc(COc2cc(-c3cccnc3)c3c(n2)CCCC3)nc1` [Example 90, 4-(Pyridin-3-yl)-2-(pyrimidin-2-ylmethoxy)-5,6,7,8-tetrahydroquinoline], the IC50 in assay [1] worked out at 152 nM. Besides, the inhibition in vivo at 1 mg/kg in assay [2] (5% formalin) is 54.3%.

For `Cc1ncc(-c2cc(OCc3ccccn3)nc3c2CCC3)cn1` [Example 36, 4-(2-Methylpyrimidin-5-yl)-2-(pyridin-2-ylmethoxy)-6,7-dihydro-5H-cyclopenta[b]pyridine hydrochloride], it took 71 nM to reach half-maximal inhibition in assay [1] (IC50). The inhibition in vivo at 3 mg/kg in assay [3] (setting [4]) came out at 40.4%; in assay [3] (setting [5]), 31.3%.

Molecule `N#Cc1ncccc1-c1cc(OCc2ccccn2)nc2c1CCC2` [Example 3, 3-[2-(Pyridin-2-ylmethoxy)-6,7-dihydro-5H-cyclopenta[b]pyridin-4-yl]pyridine-2-carbonitrile] yielded an IC50 in assay [1] of 12 nM. Moreover, in assay [2] (1% formalin), the inhibition in vivo at 1 mg/kg worked out at 25.1%.

In the case of `Nc1ncc(-c2cc(OCc3cccc(F)n3)nc3c2CCCC3)cn1` [Example 283, 5-{2-[(6-Fluoropyridin-2-yl)methoxy]-5,6,7,8-tetrahydroquinolin-4-yl}pyrimidin-2-amine hydrochloride], the inhibition in vivo at 1 mg/kg in assay [2] (5% formalin) turned out to be 38.8%.

As to `c1cnc(COc2cc(-c3cncnc3)c3c(n2)CCCC3)cn1` [Example 163, 2-(Pyrazin-2-ylmethoxy)-4-(pyrimidin-5-yl)-5,6,7,8-tetrahydroquinoline], in assay [2] (5% formalin), the inhibition in vivo at 3 mg/kg came to 37.2%.

`Cc1ncc(-c2cc(OCc3cccc(C#N)n3)nc3c2CCC3)cn1` [Example 46, 6-({[4-(2-Methylpyrimidin-5-yl)-6,7-dihydro-5H-cyclopenta[b]pyridin-2-yl]oxy}methyl)pyridine-2-carbonitrile]: the IC50 in assay [1] was determined as 207 nM. Moreover, the results for the inhibition in vivo at 1 mg/kg in assay [3] (setting [4]) and in assay [3] (setting [5]) were 22% and 31.5%, respectively.

`c1ccc(COc2cc(-c3cncnc3)c3c(n2)CCCC3)nc1` [Example 143, 2-(Pyridin-2-ylmethoxy)-4-(pyrimidin-5-yl)-5,6,7,8-tetrahydroquinoline hydrochloride] returned an IC50 in assay [1] of 38 nM. The figures for the inhibition in vivo at 3 mg/kg in assay [3] (setting [4]) and in assay [3] (setting [5]) were 52.2% and 47.7%, respectively.

The record behind these values is patent US20150225404A1, “PYRIDINE DERIVATIVE AND MEDICINE” (NIPPON SHINYAKU CO., LTD., priority 2012, published 2015).
